According to article PMC6327999, “Hydroxyl-substituted double Schiff-base condensed 4-piperidone/cyclohexanones as potential anticancer agents with biological evaluation” (Journal of Enzyme Inhibition and Medicinal Chemistry, 2019):

Assays:
Type in all cases: cell-based
[1] = tested on: human lung carcinoma cells (A549); test: Cytotoxicity, MTT assay, A549; conditions: for IC50: Homo sapiens, A549, MTT, 24 hours; for A549 SI: quotient of the IC50 values towards nonmalignant LO2 cells
From the text: (§1) Compounds 2a–d, 3a–e, 4a–e, 5a–d, and 6a–c were screened against human neoplastic cell lines such as human lung carcinoma cells (A549), human gastric adenocarcinoma cells (SGC7901), human cervical carcinoma cells (HeLa), human liver hepatocellular carcinoma cell line (Hepg2), human chronic myelogenous leukemia cell line (K562), human acute mononuclear granulocyte leukemia (THP-1), human normal heptical cell line (LO2) (Table 1) using modified MTT assay (3-(4,5-dimethyl-2-thiazolyl)-2,5-diphenyl-2-H-tetrazolium bromide, MTT, Dojindo Laboratories, Tokyo, Japan). All cell lines were maintained at 37 °C in a humidified 5% CO2 and 95% air atmosphere. The HePG2 cell lines were cultured in DMEM containing 10% fetal bovine serum. Other cell lines were grown in medium 1640 and supplemented with 10% fetal bovine serum. […] Controls were prepared with 0.1% DMSO (v/v) only. The cells were seeded in a 96-well plate in 200 µL medium per well at a density of 1 × 10^4 cells/well for 24 hours. The cells were treated with serial concentrations of compound and incubated for 24 hours. Cells with only culture media were used as control. After the media was removed, 20 µL of MTT (5 mg/mL) was added then the plates were incubated for 4 hours at 37 °C in cell culture incubator. The MTT containing media were removed and then 150 µL of DMSO was added to dissolve the dark-blue formazan crystals. The optical density (OD) was measured by a multi-well plate reader (TECAN, Männedorf, Switzerland) at 570 nm. The results are expressed as a decrease in the cell viability (%) in comparison to untreated controls. The concentration of each compound was examined in triplicate, and the IC50 values are expressed in Table 1. The concentrations of the compounds were 50, 20, 10, 5, 2.5, 1, 0.5, 0.1, 0.05 and 0.01 µg/mL. Doxorubicin (DOX) and Curcumin were used as positive controls. […] The concentrations of curcumin used were 100, 50, 25, 12.5, 6.25, 3.125, 1, 0.5 and 0.1 µg/mL.

[2] = tested on: human gastric adenocarcinoma cells (SGC7901); test: Cytotoxicity, MTT assay, SGC7901; conditions: for IC50: Homo sapiens, SGC-7901, MTT, 24 hours; for SGC7901 SI: quotient of the IC50 values towards nonmalignant LO2 cells
From the text: as §1

[3] = tested on: human liver hepatocellular carcinoma cell line (Hepg2); test: Cytotoxicity, MTT assay, HePG2; conditions: for IC50: Homo sapiens, HepG2, MTT, 24 hours; for HePG2 SI: quotient of the IC50 values towards nonmalignant LO2 cells
From the text: as §1, with “µg/mL.” for “µg/mL. Doxorubicin (DOX) and Curcumin were used as positive controls.”

[4] = tested on: human cervical carcinoma cells (HeLa); test: Cytotoxicity, MTT assay, HeLa; conditions: for IC50: Homo sapiens, HeLa, MTT, 24 hours; for HeLa SI: quotient of the IC50 values towards nonmalignant LO2 cells
From the text: as §1

[5] = tested on: human chronic myelogenous leukemia cell line (K562); test: Cytotoxicity, MTT assay, K562; conditions: for IC50: Homo sapiens, K562, MTT, 24 hours; for K562 SI: quotient of the IC50 values towards nonmalignant LO2 cells
From the text: as §1

[6] = tested on: human acute mononuclear granulocyte leukemia (THP-1); test: Cytotoxicity, MTT assay, THP-1; conditions: for IC50: Homo sapiens, THP-1, MTT, 24 hours; for THP-1 SI: quotient of the IC50 values towards nonmalignant LO2 cells
From the text: as §1

[7] = tested on: human normal heptical cell line (LO2); test: Cytotoxicity, MTT assay, non-malignant LO2; conditions: 24 hours, non-malignant cells
From the text: as §1

[8] = tested on: human carcinoma cell lines A549, SGC7901, HePG2, HeLa, K562, THP-1; test: Cytotoxicity, MTT assay, panel of human carcinoma cell lines (average / overall); conditions: average over the six carcinoma cell lines; for IC50: Homo sapiens, read-out: Ave IC50
From the text: as §1
The cytotoxicity activities against human carcinoma cell lines A549, SGC7901, HePG2, HeLa, K562, THP-1 and cytotoxicity toward LO2 cell lines were evaluated by MTT method. DOX and curcumin were used as positive control. The selectivity index (SI) is the quotient of the IC50 values towards nonmalignant LO2 cells. […] Especially for 4a–e, 5a–d, and 6a–c, this ratio can reach about 92%.

Structure (SMILES)	IC50 [1]	A549 SI [1]	IC50 [2]	SGC7901 SI [2]	IC50 [3]	HePG2 SI [3]	IC50 [4]	HeLa SI [4]	IC50 [5]	K562 SI [5]	IC50 [6]	THP-1 SI [6]	IC50 [7]	IC50 [8]	Ave SI [8]
COc1ccc(/C=N/c2ccc(F)c(/C=C3\CNC/C(=C\c4cc(/N=C/c5ccc(OC)cc5O)ccc4F)C3=O)c2)c(O)c1 [5d]	2.5 ± 0.1 µM	5.8	1.8 ± 0.1 µM	8.3	2.7 ± 0.2 µM	5.6	3.8 ± 0.2 µM	3.8	1.5 ± 0.1 µM	9.7	2.1 ± 0.2 µM	6.8	14.6 ± 1.26 µM	2.4 µM	6.7
O=C1/C(=C/c2cc(/N=C/c3cc(O)ccc3O)ccc2F)CNC/C1=C\c1cc(/N=C/c2cc(O)ccc2O)ccc1F [5b]	3 ± 0.1 µM	4.8	1.3 ± 0.2 µM	10.9	3.3 ± 0.2 µM	4.3	4.2 ± 0.5 µM	3.4	5.7 ± 0.4 µM	2.5	2.2 ± 0.1 µM	6.4	14.1 ± 1 µM	3.3 µM	5.4
O=C1/C(=C/c2cccc(/N=C/c3ccccc3O)c2)CCC/C1=C\c1cccc(/N=C/c2ccccc2O)c1 [3a]	7.4 ± 0.3 µM	2.5	11.4 ± 0.2 µM	1.6	3.3 ± 0.1 µM	5.6	9.9 ± 0.3 µM	1.8	3.4 ± 0.01 µM	5.4	1.5 ± 0.1 µM	12.4	18.2 ± 0.2 µM	6.1 µM	4.9
COc1cc(Br)cc(/C=N/c2cccc(/C=C3\CCC/C(=C\c4cccc(/N=C/c5cc(Br)cc(OC)c5O)c4)C3=O)c2)c1O [3e]	2.5 ± 0.4 µM	4.4	3 ± 0.8 µM	3.8	1.9 ± 0.01 µM	6.0	12.8 ± 0.9 µM	0.9	4.2 ± 0.1 µM	2.7	3.3 ± 0.1 µM	3.4	11.3 ± 0.3 µM	4.6 µM	3.5
Nc1ccc(F)c(/C=C2\CNC/C(=C\c3cc(N)ccc3F)C2=O)c1 [2c]	3.4 ± 1.2 µM	5.5	2.5 ± 0.8 µM	7.4	5.8 ± 0.2 µM	3.2	2.2 ± 0.1 µM	8.7	2 ± 0.1 µM	9.3	1.4 ± 0.2 µM	13.9	18.8 ± 1.4 µM	2.9 µM	8.0
CN1C/C(=C\c2cccc(/N=C/c3ccccc3O)c2)C(=O)/C(=C/c2cccc(/N=C/c3ccccc3O)c2)C1 [4a]	5.2 ± 0.4 µM	2.1	8.3 ± 0.8 µM	1.3	2.59 ± 0.1 µM	4.1	6.3 ± 0.2 µM	1.7	2.8 ± 0.1 µM	3.8	0.9 ± 0.1 µM	12.0	10.6 ± 0.1 µM	4.3 µM	4.2
O=C1/C(=C/c2cccc(/N=C/c3cc(F)ccc3O)c2)CCC/C1=C\c1cccc(/N=C/c2cc(F)ccc2O)c1 [3b]	6.1 ± 0.4 µM	2.8	2.7 ± 0.6 µM	6.4	2.8 ± 0.1 µM	6.1	8.9 ± 0.2 µM	1.9	3.4 ± 0.01 µM	5.0	1.6 ± 0.1 µM	10.5	17.1 ± 0.1 µM	4.3 µM	5.5
CN1C/C(=C\c2cc(N)ccc2F)C(=O)/C(=C/c2cc(N)ccc2F)C1 [2d]	4.1 ± 1 µM	5.4	3.8 ± 1.2 µM	5.6	6.2 ± 0.3 µM	3.5	3.1 ± 0.1 µM	6.9	3 ± 0.1 µM	7.3	2.1 ± 1.1 µM	10.3	21.6 ± 2.8 µM	3.7 µM	6.5
COc1cc(/C=C/C(=O)CC(=O)/C=C/c2ccc(O)c(OC)c2)ccc1O [Curcumin, reference compound]	19.4 ± 0.2 µM	1.4	21.5 ± 0.3 µM	1.3	16 ± 0.2 µM	1.7	23.8 ± 1.3 µM	1.2	22.1 ± 0.8 µM	1.2	21.7 ± 0.4 µM	1.3	27.5 ± 0.4 µM	20.8 µM	1.4
COc1ccc(/C=N/c2cccc(/C=C3\CN(C)C/C(=C\c4cccc(/N=C/c5ccc(OC)cc5O)c4)C3=O)c2)c(O)c1 [4d]	2.6 ± 0.5 µM	4.4	2.3 ± 0.1 µM	5.1	1.11 ± 0.1 µM	10.6	4.1 ± 0.1 µM	2.8	2 ± 0.02 µM	6.0	1 ± 0.03 µM	12.3	11.7 ± 0.1 µM	2.2 µM	6.9
CN1C/C(=C\c2cccc(N)c2)C(=O)/C(=C/c2cccc(N)c2)C1 [2b, (3E,5E)-3,5-bis(3-aminobenzylidene)-1-methylpiperidin-4-one]	6.5 ± 0.1 µM	2.6	4.2 ± 0.3 µM	4.0	3.1 ± 0.2 µM	5.4	4.4 ± 0.1 µM	3.8	4.3 ± 0.1 µM	3.9	1.5 ± 0.1 µM	11.5	16.9 ± 0.2 µM	4 µM	5.2
CN1C/C(=C\c2cccc(/N=C/c3cc(F)ccc3O)c2)C(=O)/C(=C/c2cccc(/N=C/c3cc(F)ccc3O)c2)C1 [4b]	4.1 ± 0.4 µM	3.4	1.4 ± 0.2 µM	10.0	1.07 ± 0.1 µM	12.9	3.5 ± 0.1 µM	4.0	2.15 ± 1 µM	6.4	1.2 ± 0.03 µM	11.5	13.8 ± 0.1 µM	2.2 µM	8.0
